# Source: PubChem BioAssay (NCI)
#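 These data come from cells grown in 96-well plates and exposed to compound for 48 hours at five concentrations. Abbreviation: GI50, concentration required for 50% inhibition of growth. The concentration for full growth arrest is given as TGI.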
# Key:
# Assay in all cases: inhibition of tumour cell growth, NCI panel, 48 h
# [1] = test system: LXFL 529 NSCLC
# [2] = test system: 786-0 renal
# [3] = test system: OVCAR-8 ovarian
# [4] = test system: U251 CNS
# [5] = test system: HCT-116 colon
# [6] = test system: COLO 205 colon
# [7] = test system: CCRF-CEM leukemia
# [8] = test system: HCC-2998 colon
# [9] = test system: SF-295 CNS
# [10] = test system: DLD-1 colon
# [11] = test system: SW-620 colon
# [12] = test system: UACC-62 melanoma
# [13] = test system: NCI-H460 lung
# [14] = test system: SR leukemia
# [15] = test system: MOLT-4 leukemia
# [16] = test system: LOX IMVI melanoma
# [17] = test system: HOP-62 NSCLC
# [18] = test system: KM12 colon
# [19] = test system: OVCAR-3 ovarian
# [20] = test system: SK-OV-3 ovarian
# [21] = test system: UACC-257 melanoma
# [22] = test system: TK-10 renal
# [23] = test system: RXF-631 renal
# [24] = test system: KM20L2 colon
# [25] = test system: M19-MEL melanoma
# [26] = test system: IGROV1 ovarian
# [27] = test system: HOP-92 NSCLC
# [28] = test system: HCT-15 colon
# [29] = test system: UO-31 renal
# [30] = test system: M14 melanoma
# [31] = test system: NCI-H522 lung
# [32] = test system: SK-MEL-28 melanoma
# [33] = test system: SF-539 CNS
# [34] = test system: OVCAR-4 ovarian
# [35] = test system: SK-MEL-5 melanoma
# [36] = test system: CAKI-1 renal
# [37] = test system: NCI-H23 lung
# [38] = test system: EKVX NSCLC
# [39] = test system: SNB-19 CNS
# [40] = test system: MALME-3M melanoma
# [41] = test system: SNB-75 CNS
# [42] = test system: SF-268 CNS
# [43] = test system: RPMI-8226 leukemia
# [44] = test system: A549 NSCLC
# [45] = test system: RXF 393 renal
# [46] = test system: OVCAR-5 ovarian
# [47] = test system: A498 renal
# [48] = test system: K-562 leukemia
# [49] = test system: HOP-18 NSCLC
# [50] = test system: DMS 114 small cell lung
# [51] = test system: SN12C renal
# [52] = test system: ACHN renal
# [53] = test system: HL-60(TB) leukemia
# [54] = test system: HT29 colon
# [55] = test system: DMS 273 small cell lung
# [56] = test system: NCI-H226 lung
smiles,measurement,setting,value
CCC[CH2][Sn]1([CH2]CCC)[O]C(=O)c2cccc(C)c2[O]1,GI50,[1],141 nM
same,TGI,[1],440 nM
same,GI50,[2],1070 nM
same,TGI,[2],2260 nM
same,GI50,[3],1040 nM
same,TGI,[3],2380 nM
same,GI50,[4],421 nM
same,TGI,[4],1440 nM
same,GI50,[5],1250 nM
same,TGI,[5],2500 nM
same,GI50,[6],188 nM
same,TGI,[6],1540 nM
same,GI50,[7],260 nM
same,TGI,[7],924 nM
same,GI50,[8],1270 nM
same,TGI,[8],2600 nM
same,GI50,[9],1560 nM
same,TGI,[9],2990 nM
same,GI50,[10],722 nM
same,TGI,[10],2050 nM
same,GI50,[11],200 nM
same,TGI,[11],548 nM
same,GI50,[12],581 nM
same,TGI,[12],1820 nM
same,GI50,[13],2480 nM
same,TGI,[13],5750 nM
same,GI50,[14],401 nM
same,TGI,[14],1820 nM
same,GI50,[15],218 nM
same,TGI,[15],699 nM
same,GI50,[16],210 nM
same,TGI,[16],448 nM
same,GI50,[17],2340 nM
same,TGI,[17],4160 nM
same,GI50,[18],1080 nM
same,TGI,[18],2360 nM
same,GI50,[19],1110 nM
same,TGI,[19],2320 nM
same,GI50,[20],1880 nM
same,TGI,[20],3400 nM
same,GI50,[21],626 nM
same,TGI,[21],1950 nM
same,GI50,[22],356 nM
same,TGI,[22],911 nM
same,GI50,[23],240 nM
same,TGI,[23],535 nM
same,GI50,[24],1350 nM
same,TGI,[24],2640 nM
same,GI50,[25],477 nM
same,TGI,[25],1690 nM
same,GI50,[26],1350 nM
same,TGI,[26],2720 nM
same,GI50,[27],1280 nM
same,TGI,[27],2580 nM
same,GI50,[28],592 nM
same,TGI,[28],2700 nM
same,GI50,[29],1030 nM
same,TGI,[29],2220 nM
same,GI50,[30],577 nM
same,TGI,[30],1880 nM
same,GI50,[31],119 nM
same,TGI,[31],250 nM
same,GI50,[32],454 nM
same,TGI,[32],1510 nM
same,GI50,[33],660 nM
same,TGI,[33],1910 nM
same,GI50,[34],1330 nM
same,TGI,[34],2610 nM
same,GI50,[35],1090 nM
same,TGI,[35],2330 nM
same,GI50,[36],258 nM
same,TGI,[36],852 nM
same,GI50,[37],649 nM
same,TGI,[37],1980 nM
same,GI50,[38],1420 nM
same,TGI,[38],2770 nM
same,GI50,[39],363 nM
same,TGI,[39],1360 nM
same,GI50,[40],441 nM
same,TGI,[40],1550 nM
same,GI50,[41],239 nM
same,TGI,[41],766 nM
same,GI50,[42],349 nM
same,TGI,[42],1460 nM
same,GI50,[43],250 nM
same,TGI,[43],810 nM
same,GI50,[44],1460 nM
same,TGI,[44],2790 nM
same,GI50,[45],290 nM
same,TGI,[45],1020 nM
same,GI50,[46],1780 nM
same,TGI,[46],3160 nM
same,GI50,[47],317 nM
same,TGI,[47],867 nM
same,GI50,[48],259 nM
same,TGI,[48],897 nM
same,GI50,[49],1080 nM
same,TGI,[49],2270 nM
same,GI50,[50],231 nM
same,TGI,[50],565 nM
same,GI50,[51],598 nM
same,TGI,[51],1840 nM
same,GI50,[52],551 nM
same,TGI,[52],1740 nM
same,GI50,[53],297 nM
same,TGI,[53],1370 nM
same,GI50,[54],1500 nM
same,TGI,[54],2970 nM
CCCCCCCCOCC(CO)OCCCCCCCC (stereo unspecified),TGI,[1],33100 nM
same,TGI,[2],33900 nM
same,TGI,[3],37700 nM
same,TGI,[4],32300 nM
same,TGI,[5],33600 nM
same,TGI,[6],39700 nM
same,TGI,[7],42500 nM
same,TGI,[8],33600 nM
same,TGI,[9],30500 nM
same,TGI,[10],33100 nM
same,TGI,[11],37400 nM
same,TGI,[55],33400 nM
same,TGI,[12],43300 nM
same,TGI,[13],30000 nM
same,TGI,[15],37900 nM
same,TGI,[16],32000 nM
same,TGI,[17],37200 nM
same,TGI,[19],34200 nM
same,TGI,[20],> 100000 nM
same,TGI,[21],37100 nM
same,TGI,[22],34400 nM
same,TGI,[23],32000 nM
same,TGI,[25],36300 nM
same,TGI,[26],40800 nM
same,TGI,[27],49200 nM
same,TGI,[28],29700 nM
same,TGI,[29],35900 nM
same,TGI,[30],67100 nM
same,TGI,[32],34200 nM
same,TGI,[34],34700 nM
same,TGI,[35],33800 nM
same,TGI,[36],> 100000 nM
same,TGI,[37],33000 nM
same,TGI,[39],41800 nM
same,TGI,[40],34900 nM
same,TGI,[42],29700 nM
same,TGI,[43],42500 nM
same,TGI,[44],37200 nM
same,TGI,[46],32700 nM
same,TGI,[56],44900 nM
same,TGI,[47],42000 nM
same,TGI,[48],32400 nM
same,TGI,[49],24500 nM
same,TGI,[50],42300 nM
same,TGI,[51],31800 nM
same,TGI,[52],31800 nM
same,TGI,[53],34100 nM
same,TGI,[54],36600 nM
